How the values were obtained:
[1] = molecular target: T1, hM1 (human Muscarinic receptor subtype 1) (Homo sapiens, UniProt P11229); experiment: Human M1 calcium mobilization FLIPR assay; format: cell-based; conditions: hM1 expressed in CHO cells, intracellular Ca2+ release, read-out: hM1 EC50
T1 construct: expressed in transfected cells; host or cells: CHO cells (Chinese hamster ovary cells, ATCC)
T1 sequence (P11229 1-460): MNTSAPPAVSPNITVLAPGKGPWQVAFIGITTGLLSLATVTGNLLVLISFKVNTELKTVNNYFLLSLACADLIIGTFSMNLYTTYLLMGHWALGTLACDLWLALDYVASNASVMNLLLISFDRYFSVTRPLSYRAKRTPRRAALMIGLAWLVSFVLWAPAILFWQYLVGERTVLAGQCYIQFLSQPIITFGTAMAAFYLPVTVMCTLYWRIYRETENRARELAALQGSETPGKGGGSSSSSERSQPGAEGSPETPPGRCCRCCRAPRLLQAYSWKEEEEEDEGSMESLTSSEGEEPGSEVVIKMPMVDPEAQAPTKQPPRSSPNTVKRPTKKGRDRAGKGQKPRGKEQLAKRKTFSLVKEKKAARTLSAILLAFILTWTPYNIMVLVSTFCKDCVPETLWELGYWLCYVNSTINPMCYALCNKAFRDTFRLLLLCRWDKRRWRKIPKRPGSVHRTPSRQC
Summary of the method: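 CHO cells expressing the receptor, dye-loaded at 37°C for 60 min, read on FLIPR at 510-570 nm. Agonism taken from compound-induced Ca2+ rise (max RFU for M1); M3/M5 inhibition measured against 2 nM acetylcholine using max minus min RFU. 10-point threefold dilutions, sigmoidal fits.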

[2] = molecular target: T2, cloned human M4 receptor (human Muscarinic receptor subtype 4) (Homo sapiens, UniProt P08173); experiment: hM4 receptor GTPγS binding; format: biochemical; conditions: CHO cell membranes expressing hM4; [35S]GTPγS binding; read-out: hM4 EC50
T2 construct: purchased Perkin-Elmer RBHM4M; host or cells: Chinese hamster ovary cells (CHO) membranes
T2 sequence (P08173 1-479): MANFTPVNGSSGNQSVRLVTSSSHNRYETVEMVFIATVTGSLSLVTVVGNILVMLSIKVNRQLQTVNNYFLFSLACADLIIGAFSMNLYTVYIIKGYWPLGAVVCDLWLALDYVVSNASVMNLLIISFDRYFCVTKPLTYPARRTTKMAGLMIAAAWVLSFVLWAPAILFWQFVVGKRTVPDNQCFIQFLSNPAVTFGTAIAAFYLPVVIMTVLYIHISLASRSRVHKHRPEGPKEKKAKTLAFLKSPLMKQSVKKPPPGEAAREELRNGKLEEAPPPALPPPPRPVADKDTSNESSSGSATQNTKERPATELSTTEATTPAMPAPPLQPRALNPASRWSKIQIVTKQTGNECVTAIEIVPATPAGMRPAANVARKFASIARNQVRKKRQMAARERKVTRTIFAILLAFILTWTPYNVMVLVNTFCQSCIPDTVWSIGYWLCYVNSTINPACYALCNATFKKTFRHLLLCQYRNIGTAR
Description: hM4 Receptor GTPγS Binding
Membranes produced from Chinese hamster ovary cells (CHO) expressing the cloned human M4 receptor (human Muscarinic receptor subtype 4, gene bank access NM_000741), are obtained from Perkin-Elmer (RBHM4M). The membranes are thawed at 37° C., passed 3 times through a 23-gauge blunt-end needle, diluted in the GTPγS binding buffer (50 mM Hepes, 20 mM NaOH, 100 mM NaCl, 1 mM EDTA, 5 mM MgCl2, pH 7.4, 100 μM DTT). The EC50, IC50 and Emax of the compounds of the invention are evaluated from 10-point dose-response curves (three fold concentration range) done in 60 μl in 384-well non-specific binding surface plate (Corning). Ten microliters from the dose-response curves plate (5× concentration) are transferred to another 384 well plate containing 25 μl of the following: 10 μg of hM4 membranes, 500 μg of Flashblue beads (Perkin-Elmer) and GDP 40 μM. An additional 15 μl containing 3.3× (60,000 dpm) of GTPγ^35S (0.4 nM final) are added to the wells resulting in a total well volume of 50 μl. Basal and maximal stimulated [^35S]GTPγS binding are determined in absence and presence of 30 μM final of acetylcholine agonist. The membranes/beads mix are pre-incubated for 15 minutes at room temperature with 40 μM GDP prior to distribution in plates (20 μM final). The reversal of acetylcholine-induced stimulation (10 μM final) of [^35S]GTPγS binding is used to assay the antagonist properties (IC50) of the compounds. The plates are incubated for 60 minutes at room temperature then centrifuged at 400 rpm for 5 minutes. The radioactivity (cpm) is counted in a Trilux (Perkin-Elmer).
Values of EC50, IC50 and Emax are obtained using sigmoidal fits of a non-linear curve-fitting program (XLfit version 4.2.2 Excel add-in version 4.2.2 build 18 math 1Q version 2.1.2 build 18) of percent stimulated [^35S]GTPγS binding vs. log(molar ligand). All pEC50 and plC50 values are reported as arithmetic means ±standard error of mean of ‘n’ independent experiments.

C#CCOC(=O)N1CCC(C)(N2CCC(n3c(=O)[nH]c4cc(C)ccc43)CC2)C1 (single isomer, unassigned) [Example 44, prop-2-ynyl 3-methyl-3-(4-(5-methyl-2-oxo-2,3-dihydro-1H-benzo[d]imidazol-1-yl)piperidin-1-yl)pyrrolidine-1-carboxylate]
EC50 [1]: < 2.3 nM
EC50 [2]: 107 nM

COC(=O)N1CCC(C)(N2CCC(n3c(=O)[nH]c4ccc(C)cc43)CC2)C1 (single isomer, unassigned) [Example 45, methyl 3-methyl-3-(4-(6-methyl-2-oxo-2,3-dihydro-1H-benzo[d]imidazol-1-yl)piperidin-1-yl)pyrrolidine-1-carboxylate]
EC50 [1]: 14.1 nM
EC50 [2]: 11200 nM

COC(=O)N1CCC(C)(N2CCC(n3c(=O)[nH]c4ccc(C)cc43)CC2)C1 (single isomer, unassigned) [Example 47, methyl 3-methyl-3-(4-(6-methyl-2-oxo-2,3-dihydro-1H-benzo[d]imidazol-1-yl)piperidin-1-yl)pyrrolidine-1-carboxylate]
EC50 [1]: < 3.2 nM
EC50 [2]: 907 nM

COC(=O)N1CCC(C)(N2CCC(n3c(=O)[nH]c4cc(C)ccc43)CC2)C1 (single isomer, unassigned) [Example 48, methyl 3-methyl-3-(4-(5-methyl-2-oxo-2,3-dihydro-1H-benzo[d]imidazol-1-yl)piperidin-1-yl)pyrrolidine-1-carboxylate]
EC50 [1]: 8.5 nM
EC50 [2]: 3480 nM

CCOC(=O)N1CCC(C)(N2CCC(n3c(=O)[nH]c4ccc(F)cc43)CC2)C1 (single isomer, unassigned) [Example 49, ethyl 3-(4-(6-fluoro-2-oxo-2,3-dihydro-1H-benzo[d]imidazol-1-yl)piperidin-1-yl)-3-methylpyrrolidine-1-carboxylate]
EC50 [1]: 15.1 nM
EC50 [2]: 9480 nM

CCOC(=O)N1CCC(C)(N2CCC(n3c(=O)[nH]c4ccc(F)cc43)CC2)C1 (single isomer, unassigned) [Example 50, ethyl 3-(4-(6-fluoro-2-oxo-2,3-dihydro-1H-benzo[d]imidazol-1-yl)piperidin-1-yl)-3-methylpyrrolidine-1-carboxylate]
EC50 [1]: 2.2 nM
EC50 [2]: 2020 nM

COC(=O)N1CCC(C)(N2CCC(n3c(=O)[nH]c4ccc(F)cc43)CC2)C1 (single isomer, unassigned) [Example 52, methyl 3-(4-(6-fluoro-2-oxo-2,3-dihydro-1H-benzo[d]imidazol-1-yl)piperidin-1-yl)-3-methylpyrrolidine-1-carboxylate]
EC50 [1]: 14.7 nM
EC50 [2]: 5090 nM

CC1(N2CCC(n3c(=O)[nH]c4ccc(F)cc43)CC2)CCN(C(=O)OCCF)C1 (single isomer, unassigned) [Example 53, 2-fluoroethyl 3-(4-(6-fluoro-2-oxo-2,3-dihydro-1H-benzo[d]imidazol-1-yl)piperidin-1-yl)-3-methylpyrrolidine-1-carboxylate]
EC50 [1]: 11.5 nM
EC50 [2]: 5570 nM

CCOC(=O)N1CCC(C)(N2CCC(n3c(=O)[nH]c4cc(F)c(C)cc43)CC2)C1 (single isomer, unassigned) [Example 55, ethyl 3-(4-(5-fluoro-6-methyl-2-oxo-2,3-dihydro-1H-benzo[d]imidazol-1-yl)piperidin-1-yl)-3-methylpyrrolidine-1-carboxylate]
EC50 [1]: 4.9 nM
EC50 [2]: 1710 nM

CCOC(=O)N1CCC(C)(N2CCC(n3c(=O)[nH]c4cc(F)c(C)cc43)CC2)C1 (single isomer, unassigned) [Example 56, ethyl 3-(4-(5-fluoro-6-methyl-2-oxo-2,3-dihydro-1H-benzo[d]imidazol-1-yl)piperidin-1-yl)-3-methylpyrrolidine-1-carboxylate]
EC50 [1]: 3.5 nM
EC50 [2]: 238 nM

CCOC(=O)N1CCC(C)(N2CCC(n3c(=O)[nH]c4cc(F)c(F)cc43)CC2)C1 (single isomer, unassigned) [Example 57, ethyl 3-(4-(5,6-difluoro-2-oxo-2,3-dihydro-1H-benzo[d]imidazol-1-yl)piperidin-1-yl)-3-methylpyrrolidine-1-carboxylate]
EC50 [1]: 2.6 nM
EC50 [2]: 2200 nM

CCOC(=O)N1CCC(C)(N2CCC(n3c(=O)[nH]c4cc(F)c(F)cc43)CC2)C1 (single isomer, unassigned) [Example 58, ethyl 3-(4-(5,6-difluoro-2-oxo-2,3-dihydro-1H-benzo[d]imidazol-1-yl)piperidin-1-yl)-3-methylpyrrolidine-1-carboxylate]
EC50 [1]: 17.7 nM
EC50 [2]: 9810 nM

COC(=O)N1CCC(C)(N2CCC(n3c(=O)[nH]c4cc(F)c(F)cc43)CC2)C1 (single isomer, unassigned) [Example 60, methyl 3-(4-(5,6-difluoro-2-oxo-2,3-dihydro-1H-benzo[d]imidazol-1-yl)piperidin-1-yl)-3-methylpyrrolidine-1-carboxylate]
EC50 [1]: 13.5 nM
EC50 [2]: 5080 nM

CC1(N2CCC(n3c(=O)[nH]c4cc(F)c(F)cc43)CC2)CCN(C(=O)OCCF)C1 (single isomer, unassigned) [Example 61, 2-fluoroethyl 3-(4-(5,6-difluoro-2-oxo-2,3-dihydro-1H-benzo[d]imidazol-1-yl)piperidin-1-yl)-3-methylpyrrolidine-1-carboxylate]
EC50 [1]: 14.1 nM
EC50 [2]: 4420 nM

COC(=O)N1CCC(C)(N2CCC(N3C(=O)Cc4ccc(C)cc43)CC2)C1 (single isomer, unassigned) [Example 67, methyl 3-methyl-3-(4-(6-methyl-2-oxoindolin-1-yl)piperidin-1-yl)pyrrolidine-1-carboxylate]
EC50 [1]: 20.9 nM
EC50 [2]: 15100 nM

COC(=O)N1CCC(C)(N2CCC(N3C(=O)Cc4ccc(C)cc43)CC2)C1 (single isomer, unassigned) [Example 68, methyl 3-methyl-3-(4-(6-methyl-2-oxoindolin-1-yl)piperidin-1-yl)pyrrolidine-1-carboxylate]
EC50 [1]: 13.3 nM
EC50 [2]: 6210 nM

CCOC(=O)N1CCC(C)(N2CCC(N3C(=O)Cc4ccc(C)cc43)CC2)C1 (single isomer, unassigned) [Example 69, ethyl 3-methyl-3-(4-(6-methyl-2-oxoindolin-1-yl)piperidin-1-yl)pyrrolidine-1-carboxylate]
EC50 [1]: 11 nM
EC50 [2]: 8920 nM

CCOC(=O)N1CCC(C)(N2CCC(N3C(=O)Cc4ccc(C)cc43)CC2)C1 (single isomer, unassigned) [Example 70, ethyl 3-methyl-3-(4-(6-methyl-2-oxoindolin-1-yl)piperidin-1-yl)pyrrolidine-1-carboxylate]
EC50 [1]: 9.8 nM
EC50 [2]: 1770 nM

CCOC(=O)N1CCC(C)(N2CCC(N3C(=O)Cc4ccccc43)CC2)C1 (single isomer, unassigned) [Example 72, ethyl 3-methyl-3-(4-(2-oxoindolin-1-yl)piperidin-1-yl)pyrrolidine-1-carboxylate]
EC50 [1]: 9.5 nM
EC50 [2]: > 90000 nM
